Tested on: patients with menopausal symptoms
Assay: Case study: menopausal symptoms, transdermal estriol in oil (Example 15)
Format: in vivo, human
Details: after 15 and 30 days; one patient each: estriol 1 mg oral tablet daily; example 7 oil 0.5 ml twice daily on skin (0.25 mg estriol daily); oral multivitamin and minerals tablet
Protocol: Three patients with menopausal symptoms were taken for study. The patients were divided into three groups. First patient was advised to take orally estriol one mg as tablet daily. Second patient was advised to apply over skin of thighs and abdomen 0.5 ml twice daily medicated optimized nutrient oil prepared by a process as given in example-7 which contains 0.25 mg estriol/ml, so that 0.25 mg estriol is absorbed daily by the body through skin. Third patient was given oral multivitamin and minerals as tablet.

## C[C@]12CC[C@@H]3c4ccc(O)cc4CC[C@H]3[C@@H]1C[C@@H](O)[C@@H]2O [estriol]
  hot flushes, mood changes and sleep pattern: improvement in all the three symptoms
